Assay results: patent US20140148484A1, “PYRAZOLE COMPOUNDS FOR TREATING HAIRLOSS” (Boehringer Ingelheim International GmbH, priority 2012, published 2014)

Target: T1, human CRTH2 receptor (Homo sapiens, UniProt Q9Y5Y4)
T1 construct: host or cells: CHO-K1 (CHO-K1-hCRTH2 cells); membranes prepared in house from the purchased cell line
T1 sequence (Q9Y5Y4 1-395): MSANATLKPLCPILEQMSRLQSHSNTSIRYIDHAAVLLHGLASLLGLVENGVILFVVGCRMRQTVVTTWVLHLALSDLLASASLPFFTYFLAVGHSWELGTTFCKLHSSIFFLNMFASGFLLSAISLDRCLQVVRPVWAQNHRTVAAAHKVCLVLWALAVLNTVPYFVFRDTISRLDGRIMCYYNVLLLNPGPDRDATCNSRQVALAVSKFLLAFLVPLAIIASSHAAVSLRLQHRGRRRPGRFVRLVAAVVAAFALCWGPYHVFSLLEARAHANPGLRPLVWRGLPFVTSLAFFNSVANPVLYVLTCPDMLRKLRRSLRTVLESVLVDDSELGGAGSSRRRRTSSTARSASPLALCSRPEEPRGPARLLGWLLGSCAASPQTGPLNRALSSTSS
Experiment: Human CRTH2 receptor membrane radioligand binding assay (SPA, [3H]-PGD2)
Settings: displacement of [3H]-PGD2 (1 nM) from CHO-K1-hCRTH2 cell membranes, 3 h room temperature
Procedure: Preparation of Human CRTH2 Receptor Membranes and Radioligand Binding Assay
The binding of CRTH2 antagonists is determined using membranes prepared from Chinese hamster ovary cells (CHO-K1 cells) transfected with the human CRTH2 receptor (CHO-K1-hCRTH2 cells, Perkin Elmer, Cat No ES-561-C). To produce cell membranes the CHO-K1-hCRTH2 cells are cultured in suspension in CHO SFMII medium supplemented with 400 μg/ml G418. The cells are harvested by centrifugation at 300 g for 10 min at room temperature. The cell pellet is resuspended in Phosphate Buffer Saline (PBS) including a protease inhibitor mix (Complete, Roche) and adjusted to a concentration of 10E7 cells/ml. The CHO-K1-hCRTH2 cells are disrupted by nitrogen […] to obtain the membrane preparation. Cell debris is removed by centrifugation (500 g at 4° C., 30 min) and the supernatant is transferred into fresh tubes followed by a second centrifugation at 40000 g for 1 h at 4° C. to sediment the membranes. The membranes are suspended in SPA incubation buffer (50 mM Tris HCl, 10 mM MgCl2, 150 mM NaCl, 1 mM EDTA, pH 7.4) without bovine serum albumin, homogenized by passing through a single use needle (Terumo, 23G×1″), and stored in aliquots at −80° C.
The CRTH2 receptor binding assay is performed in a scintillation proximity assay (SPA) format with the radioligand [^3H]-PGD2 (Perkin Elmer, NET616000MC). CHO-K1-hCRTH2 cell membranes are again homogenized by passing through a single use needle (Terumo, 23G×1″) and diluted in SPA incubation buffer in suitable concentrations (0.5-10 μg protein/well). The SPA assay is set up in 96 well microtiter plates (Perkin Elmer, CatNo. 6005040) in SPA incubation buffer with a final volume of 200 μl per well and final concentration of 50 mM Tris-HCl, 10 mM MgCl2, 150 mM NaCl, 1 mM EDTA pH 7.4, 0.1% bovine serum albumin). The SPA assay mixture contains 60 μl of the membrane suspension, 80 μl of Wheat Germ Agglutinin coated PVT beads (GE Healthcare, RPNQ-0001, 0.3 mg/well), 40 μl of [3H]-PGD2 diluted in SPA buffer to a final concentration of 1 nM (50 000 dpm) and 20 μl of the test compound (dissolved in dimethylsulfoxid). The SPA assay mixture is incubated for 3 h at room temperature. Bound radioactivity is determined with a scintillation counter (Micro Beta Trilux, Wallac).
The binding of [^3H]-PGD2 to CHO-K1-hCRTH2 cell membranes is determined in the absence (total binding, Bo) and presence (non-specific binding, NSB) of unlabelled PGD2 (1 μM, Cayman Chemical, Cat No 12010) or a reference CRTH2 antagonist (10 μM CAY10471, Cayman Chemical, Cat No 10006735).
Determination of the affinity of a test compound is calculated by subtraction of the non-specific binding (NSB) from the total binding (Bo) or the binding in the presence of the test compound (B) at a given compound concentration. […] The Bo−NSB value is set to 0% inhibition.

Structure (SMILES) | Ki
Cc1nn(Cc2ccc(COc3ccc(C(F)(F)F)cc3)cc2)c(C)c1CC(=O)O [Example 14.1] | 1530 nM
CCc1nn(Cc2ccc(C(=O)NCc3ccc(Cl)c(Cl)c3)cc2)c(CC)c1CC(=O)O [Example 9.18] | 24.9 nM
Cc1cc(C)c(C(=O)Nc2ccc(Cn3nc(C)c(CC(=O)O)c3C)cc2)c(C)c1 [Example 1.24] | 553 nM
CCc1nn(Cc2ccc(NC(=O)c3cccc4c3CCCC4)cc2)c(CC)c1CC(=O)O [Example 2.21] | 0.5 nM
CCc1nn(Cc2ccc(NC(=O)c3ccc(Br)cc3C)cc2)c(CC)c1CC(=O)O [Example 2.17] | 0.7 nM
Cc1nn(Cc2ccc(NC(=O)CCc3ccccc3)cc2)c(C)c1CCC(=O)O [Example 8.5] | 427 nM
CCc1nn(Cc2ccc(NC(=O)OCc3ccccc3Cl)cc2)c(CC)c1CC(=O)O [Example 3.10] | 5.2 nM
Cc1nn(Cc2ccc(NC(=O)c3ccc4ccccc4c3C)cc2)c(C)c1CC(=O)O [Example 1.26] | 36 nM
CCc1nn(Cc2ccc(NC(=O)c3cc(C)ccc3Br)cc2)c(CC)c1CC(=O)O [Example 2.19] | 5.8 nM
Cc1nn(Cc2ccc(NC(=O)c3ccc(C(F)(F)F)cc3)cc2)c(C)c1CC(=O)O [Example 1.1] | 2.9 nM
Cc1nn(Cc2ccc(CS(=O)(=O)c3ccc(Cl)c(Cl)c3)cc2)c(C)c1CC(=O)O [Example 16.6] | 853 nM
Cc1c(CC(=O)O)cnn1Cc1ccc(NC(=O)c2ccc3ccccc3c2)cc1 [Example 2.55] | 21.6 nM
CCc1nn(Cc2ccc(NC(=O)OCc3ccccc3)cc2)c(CC)c1CC(=O)O [Example 3.3] | 0.3 nM
CCc1nn(Cc2ccc(NC(=O)OCc3ccc4ccccc4c3)cc2)c(CC)c1CC(=O)O [Example 3.12] | 0.1 nM
Cc1cc(C(F)(F)F)ccc1C(=O)Nc1ccc(Cn2nc(C)c(CCC(=O)O)c2C)cc1 [Example 8.7] | 669 nM
Cc1nn(Cc2ccc(NC(=O)c3ccc(Cl)cc3Cl)cc2)c(C)c1CC(=O)O [Example 1.18] | 17.9 nM

Structure (SMILES) | Ki
CCc1nn(Cc2ccc(NC(=O)c3ccc(Cl)c(Cl)c3)cc2)c(CC)c1CC(=O)O [Example 2.6] | 0.25 nM
Cc1cc(Cn2nc(C)c(CC(=O)O)c2C)ccc1NC(=O)c1ccc(C(F)(F)F)cc1 [Example 7.3] | 13.5 nM
Cc1nn(Cc2ccc(NC(=O)/C=C/c3ccccc3)cc2)c(C)c1CC(=O)O [Example 1.13] | 4 nM
Cc1cc(C(F)(F)F)ccc1C(=O)Nc1ccc(Cn2nc(C)c(CC(=O)O)c2C)c(Cl)c1 [Example 7.14] | 1.6 nM
Cc1nn(Cc2ccc(NC(=O)c3ccc(Cl)c(Cl)c3)cc2Cl)c(C)c1CC(=O)O [Example 7.15] | 0.6 nM
Cc1nn(Cc2ccc(NC(=O)c3ccc4ccccc4c3)cc2)c(C)c1CC(=O)O [Example 1.7] | 2.5 nM
Cc1nn(Cc2ccc(S(=O)(=O)Nc3ccc(F)cc3)cc2)c(C)c1CC(=O)O [Example 10.1] | 2.6 nM
Cc1c(CC(=O)O)c(-c2ccccc2)nn1Cc1ccc(NC(=O)c2ccc3ccccc3c2)cc1 [Example 2.12] | 2.3 nM
CCc1nn(Cc2ccc(C(=O)Nc3ccc(Br)c(F)c3)cc2)c(CC)c1CC(=O)O [Example 9.16] | 6.7 nM
CCc1nn(Cc2ccc(NC(=O)c3ccc(C(F)(F)F)cc3)cc2)c(C)c1CC(=O)O [Example 2.53] | 0.2 nM
CCc1nn(Cc2ccc(NC(=O)[C@H]3CC[C@@H](C(F)(F)F)CC3)cc2)c(CC)c1CC(=O)O [Example 2.16] | 23.9 nM
Cc1cc(Cl)ccc1COc1ccc(Cn2nc(C)c(CC(=O)O)c2C)cc1 [Example 13.3] | 619 nM
Cc1ccc(Br)c(C(=O)Nc2ccc(Cn3nc(C)c(CC(=O)O)c3C)cc2)c1 [Example 1.31] | 18.9 nM
CCc1nn(Cc2ccc(C(=O)Nc3ccc4ccccc4n3)cc2)c(CC)c1CC(=O)O [Example 9.23] | 4 nM
Cc1ccc(C(=O)Nc2ccc(Cn3nc(C)c(CC(=O)O)c3C)cc2)c(F)c1 [Example 1.20] | 29.3 nM
Cc1nn(Cc2ccc(COc3ccccc3)cc2)c(C)c1CC(=O)O [Example 14.3] | 742 nM
